Experimental data taken from patent US20250017998A1, “SP-8356, EMODIN, AND IT603 ENHANCE BEIGE ADIPOCYTE ACTIVITY AND ALLEVIATE OBESITY AND DIABETES VIA UNCOUPLING PROTEIN 1 (UCP1)-INDEPENDENT MECHANISM” (The Chinese University of Hong Kong, priority 2023, published 2025).

Tests used:
[1] = tested on: WT human beige adipocytes; experiment: Seahorse Mitochondrial Stress Test, oxygen consumption rate in WT human beige adipocytes; type: cell-based; settings: 1 μM, 24 h, WT hiPSC-derived beige adipocytes, vs DMSO (FIGS. 2A-2C)
Description: (§1) FIGS. 2A-2F. SP-8356, emodin, and IT603 increase energy expenditure in human beige adipocytes in a UCP1-independent manner. WT or UCP1 knockout hiPSCs were differentiated to beige adipocytes followed by treatment with SP-8356 (1 μM), Emodin (1 μM), and IT603 (1 μM) for 24 h, respectively. DMSO was used as the vehicle control. The oxygen consumption rate (OCR) was examined by the Seahorse Mitochondrial Stress Test assay. (FIGS. 2A-2C) OCR in WT human beige adipocytes treated with SP-8356, Emodin, and IT603, respectively. (FIGS. 2D-2F) OCR in UCP1 knockout human beige adipocytes treated with SP-8356, Emodin, and IT603, respectively. *p<0.05, **p<0.01. A total of 20 days was required for hiPSC differentiation into beige adipocytes. We used BMP4 (10 ng/mL) and ActivinA (25 ng/mL) from day 0 to day 4 to induce mesodermal differentiation in the first stage. We then induce mesodermal progenitors to differentiate into adipocyte progenitors with insulin ([…]), isobutylmethylxanthine (IBMX) (500 μmol/L), dexamethasone (1 μmol/L), and indomethacin (50 μmol/L) from day 4 to day 10. Eventually, mature beige adipocytes will be formed by insulin (1 μg/mL) induction on day 10 to 20. […] were plated in the XF96 plates (Agilent Technologies, Inc., Santa Clara, CA) and differentiated into the beige adipocytes. The XF Cell Mito Stress Test Kit (Seahorse Bioscience, 103015-100) was used to perform the assay by following the manufacturer's instructions.

[2] = tested on: UCP1 knockout human beige adipocytes; experiment: Seahorse Mitochondrial Stress Test, oxygen consumption rate in UCP1 knockout human beige adipocytes; type: cell-based; settings: 1 μM, 24 h, UCP1 knockout hiPSC-derived beige adipocytes, vs DMSO (FIGS. 2D-2F)
Description: as §1

LETMD1 [3] = experiment: RNA-seq of LETMD1 mRNA in hiPSC-derived beige adipocytes; type: cell-based, human; settings: 0.1 μM, 24 h, RNA sequencing (FIG. 1B)
Description: (§2) FIGS. 1A-1C. Generation and characterization of the LETMD1-tdTomato reporter hiPSC. (FIG. 1A) Schematic illustration of the knock-in design for the LETMD1-tdTomato reporter hiPSCs. (FIG. 1B) hiPSCs were differentiated into beige adipocytes and treated with β3 adrenergic receptor (β3-AR) agonist Mirabegron (0.1 μM) for 24 h and subjected to RNA-seq. The fold change of LETMD1 and its analogue LETM1 were plotted. (FIG. 1C) Representative images of tdTomato fluorescence intensity in LETMD1 reporter hiPSC-derived beige adipocytes treated with or without Mirabegron (0.1 μM) for 24 h.
A total of 20 days was required for hiPSC differentiation into beige adipocytes. We used BMP4 (10 ng/mL) and ActivinA (25 ng/mL) from day 0 to day 4 to induce mesodermal differentiation in the first stage. We then induce mesodermal progenitors to differentiate into adipocyte progenitors with insulin ([…]), isobutylmethylxanthine (IBMX) (500 μmol/L), dexamethasone (1 μmol/L), and indomethacin (50 μmol/L) from day 4 to day 10. […]
(§3) To monitor the endogenous LETMD1 expression in human iPSCs with ease, we generated a fluorescent protein-based reporter human iPS cell line using a CRISPR/Cas9-mediated knock-in (KI) system (FIG. 1A). […] This cell line enables us to monitor the endogenous expression of LETMD1 in a high-throughput manner using the red fluorescence intensity as a surrogate.

LETMD1 [4] = experiment: LETMD1-tdTomato reporter hiPSC-derived beige adipocytes, red fluorescence; type: cell-based, human; settings: 0.1 μM, 24 h, LETMD1 reporter hiPSC-derived beige adipocytes (FIG. 1C)
Description: as §2
A total of 20 days was required for hiPSC differentiation into beige adipocytes. […]
LETMD1 reporter hiPSCs were plated in the 96-well plates and differentiated into beige adipocytes. […] After that, the red fluorescent signals were quantified by the ThermoFisher (Waltham, MA) Varioskan Multimode Microplate Reader. […] measurement for each compound was normalized to the vehicle control group.
as §3

Row | SMILES | oxygen consumption rate (OCR) [1] | oxygen consumption rate (OCR) [2] | mRNA level of LETMD1 (LETMD1 [3]) | density of tdTomato fluorescent protein (LETMD1 [4])
1 | COc1cc(Br)cc(/C=C2/NC(=S)NC2=O)c1O [IT603] | showed most significant capacity to elevate the OCR | enhanced the OCR | – | –
2 | Nc1nc(CC(=O)Nc2ccc(CCNC[C@H](O)c3ccccc3)cc2)cs1 [Mirabegron] | – | – | significantly increased | increased significantly
3 | COc1cc(/C=C/C2=CC(=O)[C@H]3C[C@@H]2C3(C)C)cc(O)c1O [SP-8356] | showed most significant capacity to elevate the OCR | enhanced the OCR | – | –
4 | Cc1cc(O)c2c(c1)C(=O)c1cc(O)cc(O)c1C2=O [emodin] | showed most significant capacity to elevate the OCR | enhanced the OCR | – | –
